Results on 64 compounds are retold here after patent publication US9393221B2, “Methods and compounds for reducing intracellular lipid storage” (THE GENERAL HOSPITAL CORPORATION, priority 2011, dated 2016).

Counter-ions that a name gives are not always drawn. Square brackets hold non-standard residues; d marks the D form. Peptide text beside a SMILES is read from it. * marks the point of attachment. Sta = CC(C)C[C@H](N)[C@@H](O)CC(=O)O; Isovaleryl = CC(C)CC(=O)*

One experiment deals with ATGL-KO iPSCs. In words: High throughput iPSC chemical screening, Oil Red O (ORO) lipid accumulation. For Z-score: test concentration or dose not given here. Format: cell-based, mouse.
Conditions: not given
On to `COc1cc2c(c(OC)c1OC)-c1ccc(OC)c(=O)cc1[C@@H](NC(C)=O)CC2` [Colchicine], for which the Z-score is reported as 35.6417.
On the same count and under the same terms, the figure for `C[n+]1ccccc1/C=N/O` [Pralidoxime chloride] is 1.281.

Still in this experiment, the particulars now being: glycolytic switch compounds.
As to `Cc1cc2c(C(C)C)c(O)c(O)c(C=O)c2c(O)c1-c1c(C)cc2c(C(C)C)c(O)c(O)c(C=O)c2c1O` [Gossypol], the “Rank in normalized ORO score from screen” value came to 8.

Staying with this experiment, now noted: normalized ORO level vs DMSO-treated cells; compound present during 7 days differentiation, 96-well; negative = decrease in lipid accumulation.
`CC(=O)OCC(=O)[C@@]1(O)CC[C@H]2[C@@H]3CCC4=CC(=O)C=C[C@]4(C)[C@@]3(F)[C@@H](O)C[C@@]21C` [Isoflupredone acetate] displayed a Z-score of 1.55.
The same measure, in the same setting: the figure for `CC(C(=O)O)c1cccc(Oc2ccccc2)c1` (centres unmarked) [Fenoprofen calcium salt dihydrate] is −0.4668; for `COc1ccc2c(c1)c(CC(=O)O)c(C)n2C(=O)c1ccc(Cl)cc1` [Indomethacin] it is −0.7862.
Consider `COC(=O)Nc1nc2ccc(Sc3ccccc3)cc2[nH]1` [Fenbendazole], for which the Z-score is 16.3822.
Still for that read-out and setting: the figure for `COc1cc2c(cc1O)C[C@H]1c3c(cc(O)c(OC)c3-2)CCN1C` [Boldine] is −0.6389; for `C=C1[C@H]2C[C@@]3([C@@H]1O)[C@@H](C[C@@H]2O)[C@]12[C@@H]4C[C@H]3[C@H]1N(CC)C[C@]4(C)CC[C@@H]2O` [Napelline] it is −1.869.
Still for that read-out and setting: the figure for `O=C(c1ccc(OCCN2CCCCC2)cc1)c1c(-c2ccc(O)cc2)sc2cc(O)ccc12` [Raloxifene hydrochloride] is −0.8574.
Still for that read-out and setting: next, `CCOC(=O)[C@@](C)(N)Cc1ccc(O)c(O)c1` [Methyldopate hydrochloride]: 0.5054; `CC(=O)N1CCN(c2ccc(OCC3COC(Cn4ccnc4)(c4ccc(Cl)cc4Cl)O3)cc2)CC1` (centres unmarked) [Ketoconazole]: 1.224.
As for `CS(=O)(=O)c1ccc([C@@H](O)[C@@H](CO)NC(=O)C(Cl)Cl)cc1` [Thiamphenicol], the Z-score came out at 16.8903.
Same read-out and setting: next, `CC1(C)S[C@@H]2[C@H](NC(=O)[C@H](NC(=O)N3CCNC3=O)c3ccccc3)C(=O)N2[C@H]1C(=O)O` [Azlocillin sodium salt]: −1.1617; `COc1cc(Cc2cnc(N)nc2N)cc(OC)c1OC` [Trimethoprim]: −0.9568.
`COc1cc(NS(=O)(=O)c2ccc(N)cc2)ncn1` [Sulfamonomethoxine] displayed a Z-score of −1.3171.
On the same count and under the same terms, the figure for `CNCCCC1c2ccccc2C=Cc2ccccc21` [Protriptyline hydrochloride] is −0.1298.
On to `CC(C)Cc1ccc([C@H](C)C(=O)O)cc1` [S-(+)-ibuprofen], for which the Z-score is given as −1.4076.
On the same count and under the same terms, next, `CN(C)C(=O)Oc1cccc([N+](C)(C)C)c1` [Neostigmine bromide]: 1.386; `NS(=O)(=O)c1cc(C2(O)NC(=O)c3ccccc32)ccc1Cl` (centres unmarked) [Chlorthalidone]: −0.3195.
Still for that read-out and setting: next, `CCN(CC)C(=O)N1CCN(C)CC1` [Diethylcarbamazine citrate]: −1.1872; `Cc1cc(C(C)(C)C)cc(C)c1CC1=NCCN1` [Xylometazoline hydrochloride]: 0.7686; `OCC(O)CN1CCN(c2ccccc2)CC1` (racemic) [Dropropizine (R,S)]: 0.6396.
Still for that read-out and setting: next, `CN1CCCN=C1/C=C/c1cccc(O)c1.O=C(O)c1cc2ccccc2c(Cc2c(O)c(C(=O)O)cc3ccccc23)c1O` [Oxantel pamoate]: 1.422; `Clc1ccc(COC(Cn2ccnc2)c2ccc(Cl)cc2Cl)cc1` (centres unmarked) [Econazole nitrate]: −0.8488; `CO[C@@]1(NC(=O)CSCC#N)C(=O)N2C(C(=O)O)=C(CSc3nnnn3C)CS[C@@H]21` [Cefmetazole sodium salt]: −0.8537.
With `NCCc1cc[nH]n1` [Betazole hydrochloride], the Z-score is −0.1702.
Still for that read-out and setting: next, `CN(C)CC/C=C1\c2ccccc2CSc2ccccc21` [Dosulepin hydrochloride]: 0.00689.
Still for that read-out and setting: next, `Nc1ccc(S(=O)(=O)NC(=O)c2ccccc2)cc1` [Sulfabenzamide]: 1.96.
Same read-out and setting: next, `c1ccc2c(c1)OCC(C1=NCCN1)O2` (centres unmarked) [Idazoxan hydrochloride]: −1.447; `CO[C@H]1C[C@H](O[C@H]2[C@H](C)[C@@H](O[C@@H]3O[C@H](C)C[C@H](N(C)C)[C@H]3O)[C@@H](C)C[C@@]3(CO3)C(=O)[C@H](C)[C@@H](O)[C@@H](C)[C@@H](C)OC(=O)[C@@H]2C)O[C@@H](C)[C@@H]1O` [Oleandomycin phosphate]: 0.5069; `Cc1ncc(C[n+]2csc(CCO)c2C)c(N)n1` [Thiamine hydrochloride]: 1.576.
Turning to `COC(=O)C1=CO[C@@H](C)[C@H]2CN3CCc4c([nH]c5ccccc45)[C@@H]3C[C@H]12.Cl` [Ajmalicine hydrochloride], the Z-score was −0.8989.
Still for that read-out and setting: next, `Cc1nnc(NS(=O)(=O)c2ccc(N)cc2)s1` [Sulfamethizole]: −0.7734; `CC1=NCCc2c1[nH]c1cc(O)ccc21.Cl.O.O` [Harmalol hydrochloride dihydrate]: 0.3888; `O=C(CCCN1CCC(O)(c2ccc(Br)cc2)CC1)c1ccc(F)cc1` [Bromperidol]: −0.6428.
`CCN(CC)CCNC(=O)c1ccc(N)cc1` [Procainamide hydrochloride] displayed a Z-score of −0.2319.
On the same count and under the same terms, the figure for `CN(C)[C@@H]1C(O)=C(C(N)=O)C(=O)[C@@]2(O)C(O)=C3C(=O)c4c(O)cccc4[C@@](C)(O)[C@H]3[C@H](O)[C@@H]12` [Oxytetracycline dihydrate] is 1.185.
The same measure, in the same setting: next, `CC(=O)Oc1cc(C(C)C)c(OCCN(C)C)cc1C.Cl` [Moxisylyte hydrochoride]: −0.4722; `CC(C)CC(=O)N[C@H](C(=O)N[C@H](C(=O)N[C@@H](CC(C)C)[C@@H](O)CC(=O)N[C@@H](C)C(=O)N[C@@H](CC(C)C)[C@@H](O)CC(=O)O)C(C)C)C(C)C` [Pepstatin A] (Isovaleryl-VV[Sta]A[Sta]-OH): 1.261; `C[C@H]1CC[C@]2(NC1)O[C@H]1C[C@H]3[C@@H]4CC[C@H]5C[C@@H](O[C@@H]6O[C@H](CO)[C@H](O[C@@H]7O[C@H](CO)[C@@H](O)[C@H](O[C@@H]8OC[C@@H](O)[C@H](O)[C@H]8O)[C@H]7O[C@@H]7O[C@H](CO)[C@@H](O)[C@H](O)[C@H]7O)[C@H](O)[C@H]6O)CC[C@]5(C)[C@H]4CC[C@]3(C)[C@H]1[C@@H]2C` [Tomatine, reference compound]: −2.0901.
As to `CN(C)CCC(c1ccccc1)c1ccccn1` (centres unmarked) [Pheniramine maleate], the Z-score is 0.3153.
On the same count and under the same terms, the figure for `CCN(CCCCOC(=O)c1ccc(OC)c(OC)c1)C(C)Cc1ccc(OC)cc1` (centres unmarked) [Mebeverine hydrochloride] is 0.1096; for `CC(=O)c1ccc2c(c1)N(CCCN1CCC(CCO)CC1)c1ccccc1S2` [Piperacetazine] it is −0.4798.
The compound `CC(C)NCC(O)COc1ccc(CCOCC2CC2)cc1` (centres unmarked) [Betaxolol hydrochloride] yielded a Z-score of 1.393.
On the same count and under the same terms, the figure for `CCc1oc2ccccc2c1C(=O)c1cc(Br)c(O)c(Br)c1` [Benzbromarone] is −0.349.
`CCCCOc1cc(C(=O)OCCN(CC)CC)ccc1N` [Benoxinate hydrochloride] returned a Z-score of 0.4398.
Still for that read-out and setting: next, `C=C1c2cccc(O)c2C(=O)C2=C(O)[C@]3(O)C(=O)C(C(N)=O)=C(O)[C@@H](N(C)C)[C@@H]3[C@@H](O)[C@H]12` [Methacycline hydrochloride]: 2.309.
Still for that read-out and setting: the figure for `COc1ccc(CN(CCN(C)C)c2ccccn2)cc1` [Pyrilamine maleate] is −1.3015; for `CC(C)NC[C@@H](O)COc1ccc(CC(N)=O)cc1` [(R)-(+)-Atenolol] it is 0.9856.
Same read-out and setting: next, `CCCC(=O)Nc1ncnc2c1ncn2[C@@H]1O[C@@H]2COP(=O)(O)O[C@H]2[C@H]1OC(=O)CCC` [Bucladesine sodium salt]: −0.9927; `NC[C@@H]1O[C@H](O[C@H]2[C@@H](O)[C@H](O[C@@H]3[C@@H](O)[C@H](N)C[C@H](N)[C@H]3O[C@H]3O[C@H](CN)[C@@H](O)[C@H](O)[C@H]3N)O[C@@H]2CO)[C@H](N)[C@@H](O)[C@@H]1O.O=S(=O)(O)O` [Neomycin sulfate]: −0.2127.
Regarding `C[C@@H](O)[C@H]1C(=O)N2C(C(=O)O)=C(S[C@@H]3CN[C@H](C(=O)N(C)C)C3)[C@H](C)[C@H]12` [Meropenem], the Z-score is on record as 0.5806.
Same read-out and setting: next, `CC(C)NCC(O)COc1cccc2[nH]ccc12` (centres unmarked) [Pindolol]: 0.03656; `O=C(O)c1ccccc1OP(=O)(O)O` [Fosfosal]: −1.2351.
In the case of `NS(=O)(=O)c1cc2c(cc1Cl)NC(C(Cl)Cl)NS2(=O)=O` (centres unmarked) [Trichlormethiazide], the Z-score was −1.2081.
Same read-out and setting: next, `COc1ccc([C@@H]2Sc3ccccc3N(CCN(C)C)C(=O)[C@@H]2OC(C)=O)cc1` [Diltiazem hydrochloride]: −0.974; `CN(C)CCN(Cc1cccs1)c1ccccn1` [Methapyrilene hydrochloride]: −0.1861.
Retrorsine showed a Z-score of 0.08676.
The same measure, in the same setting: the figure for `Cc1cc2c(C(C)C)c(O)c(O)c(C=O)c2c(O)c1-c1c(C)cc2c(C(C)C)c(O)c(O)c(C=O)c2c1O` [Gossypol] is −2.0704; for `CC(=O)Nc1c(I)c(C(=O)N[C@H]2C(O)O[C@H](CO)[C@@H](O)[C@@H]2O)c(I)c(N(C)C(C)=O)c1I` (some centres unmarked) [Metrizamide] it is 1.8943; for `C[C@H](CCC(=O)O)[C@H]1CC[C@H]2[C@@H]3[C@@H](O)C[C@@H]4C[C@H](O)CC[C@]4(C)[C@H]3CC[C@]12C` [Urosiol] it is 0.02187.
On the same count and under the same terms, next, `COc1c(O[C@@H]2O[C@H](CO)[C@@H](O)[C@H](O)[C@H]2O)cc2c(c1OC)-c1ccc(SC)c(=O)cc1[C@@H](NC(C)=O)CC2` [Thiocolchicoside]: 11.5611; `CC(=O)[C@H]1CC[C@H]2[C@@H]3C[C@H](C)C4=CC(=O)CC[C@]4(C)[C@H]3[C@@H](O)C[C@]12C` [Medrysone]: −0.1611; `CN(C)C(=N)N=C(N)N` [Metformin hydrochloride]: 0.7664.
